# Data as given in ChEMBL document CHEMBL5442175, “EUbOPEN Chemogenomics Library - PDSP Secondary Binding” (2024).
# Where a name gives a salt, the structure may show the parent alone.
# How the values were obtained:
# [1] = molecular target: T1, Muscarinic acetylcholine receptor M2 (Homo sapiens, UniProt P08172); assay: (§1) PDSP Secondary Binding target: CHRM2 - Compounds are tested at 10 uM concentration, plate are incubated at room temperature in the dark for 90 minutes. Reaction are stopped by vacuum filtration onto 0.3% polyethyleneimine soaked filter mats using Filtermate harvester. Scintillation cocktail is then melted onto microwave-dried filters on a hot plate and the radio activity is counted in Microbia counter.
# T1 sequence (P08172 whole entry): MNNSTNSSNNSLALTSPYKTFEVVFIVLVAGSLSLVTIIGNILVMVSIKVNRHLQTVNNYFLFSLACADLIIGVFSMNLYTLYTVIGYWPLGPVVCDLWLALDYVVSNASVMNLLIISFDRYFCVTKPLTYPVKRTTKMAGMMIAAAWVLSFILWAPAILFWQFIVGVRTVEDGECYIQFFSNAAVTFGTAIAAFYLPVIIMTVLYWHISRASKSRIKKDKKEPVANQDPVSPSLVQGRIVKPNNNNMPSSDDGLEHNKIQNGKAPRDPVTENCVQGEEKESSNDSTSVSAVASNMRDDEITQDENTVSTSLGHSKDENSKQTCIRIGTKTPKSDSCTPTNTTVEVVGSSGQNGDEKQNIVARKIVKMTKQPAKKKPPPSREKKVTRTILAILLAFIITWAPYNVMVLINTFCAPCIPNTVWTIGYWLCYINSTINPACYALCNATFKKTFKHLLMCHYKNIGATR
# [2] = molecular target: Muscarinic acetylcholine receptor M3 (Homo sapiens, UniProt P20309); assay: as §1, with “CHRM3” for “CHRM2”
# Sequence of Muscarinic acetylcholine receptor M3 (P20309 whole entry): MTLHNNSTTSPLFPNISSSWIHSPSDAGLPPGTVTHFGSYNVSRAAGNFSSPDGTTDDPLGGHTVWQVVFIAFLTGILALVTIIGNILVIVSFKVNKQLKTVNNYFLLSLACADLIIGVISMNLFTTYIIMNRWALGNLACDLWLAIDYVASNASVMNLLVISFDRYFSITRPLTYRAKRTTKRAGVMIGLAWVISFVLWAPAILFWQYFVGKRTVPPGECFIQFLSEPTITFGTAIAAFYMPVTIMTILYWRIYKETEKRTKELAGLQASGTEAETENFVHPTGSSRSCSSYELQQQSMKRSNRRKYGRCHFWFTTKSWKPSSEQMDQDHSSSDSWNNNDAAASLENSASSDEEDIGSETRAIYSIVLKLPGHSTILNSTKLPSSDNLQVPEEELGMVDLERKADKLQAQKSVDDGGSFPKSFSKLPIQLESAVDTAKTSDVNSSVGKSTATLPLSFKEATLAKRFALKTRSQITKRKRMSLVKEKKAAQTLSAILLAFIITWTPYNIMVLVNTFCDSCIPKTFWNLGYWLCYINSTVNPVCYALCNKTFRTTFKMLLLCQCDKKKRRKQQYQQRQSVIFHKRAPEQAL
# [3] = molecular target: Kappa-type opioid receptor (Homo sapiens, UniProt P41145); assay: as §1, with “OPRK1” for “CHRM2”
# Sequence of Kappa-type opioid receptor (P41145 whole entry): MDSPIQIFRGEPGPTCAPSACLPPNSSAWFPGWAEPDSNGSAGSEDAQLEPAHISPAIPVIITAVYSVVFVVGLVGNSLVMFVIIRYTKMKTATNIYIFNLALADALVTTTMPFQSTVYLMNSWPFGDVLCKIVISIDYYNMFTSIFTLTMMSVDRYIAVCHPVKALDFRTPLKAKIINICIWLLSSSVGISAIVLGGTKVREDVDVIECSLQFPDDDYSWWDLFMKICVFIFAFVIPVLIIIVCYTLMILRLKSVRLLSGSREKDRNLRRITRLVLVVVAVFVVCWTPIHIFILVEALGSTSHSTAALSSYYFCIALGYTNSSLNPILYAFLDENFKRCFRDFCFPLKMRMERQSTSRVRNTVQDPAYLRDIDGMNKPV
# [4] = molecular target: T2, Muscarinic acetylcholine receptor M5 (Homo sapiens, UniProt P08912); assay: as §1, with “CHRM5” for “CHRM2”
# T2 sequence (P08912 whole entry): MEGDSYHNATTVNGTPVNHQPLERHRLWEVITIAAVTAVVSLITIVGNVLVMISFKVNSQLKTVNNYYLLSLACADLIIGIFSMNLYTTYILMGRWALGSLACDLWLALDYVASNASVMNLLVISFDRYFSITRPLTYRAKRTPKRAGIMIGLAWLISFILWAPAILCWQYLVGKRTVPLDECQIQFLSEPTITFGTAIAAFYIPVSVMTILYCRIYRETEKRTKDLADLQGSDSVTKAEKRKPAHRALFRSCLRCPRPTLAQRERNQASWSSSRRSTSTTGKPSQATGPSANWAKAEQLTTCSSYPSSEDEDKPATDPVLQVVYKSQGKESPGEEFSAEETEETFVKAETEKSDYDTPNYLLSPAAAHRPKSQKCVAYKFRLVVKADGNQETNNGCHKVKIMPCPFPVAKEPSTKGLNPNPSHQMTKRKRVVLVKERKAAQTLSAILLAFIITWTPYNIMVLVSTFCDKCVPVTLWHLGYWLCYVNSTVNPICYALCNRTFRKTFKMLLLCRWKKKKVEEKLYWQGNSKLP
# D(3) dopamine receptor = D(3) dopamine receptor (Homo sapiens, UniProt P35462); assay: as §1, with “DRD3” for “CHRM2”
# Sequence of D(3) dopamine receptor (P35462 whole entry): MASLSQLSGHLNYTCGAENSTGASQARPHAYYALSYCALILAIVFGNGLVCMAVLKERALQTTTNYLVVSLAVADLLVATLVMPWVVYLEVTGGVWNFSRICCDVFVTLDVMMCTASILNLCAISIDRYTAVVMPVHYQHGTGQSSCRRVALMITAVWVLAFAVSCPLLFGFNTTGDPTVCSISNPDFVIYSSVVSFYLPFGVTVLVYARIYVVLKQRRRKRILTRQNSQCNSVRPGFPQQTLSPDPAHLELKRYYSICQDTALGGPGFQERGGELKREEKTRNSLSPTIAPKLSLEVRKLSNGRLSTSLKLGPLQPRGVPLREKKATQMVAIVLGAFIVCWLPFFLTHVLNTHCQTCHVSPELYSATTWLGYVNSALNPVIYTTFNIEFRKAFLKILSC
# [5] = molecular target: T3, Muscarinic acetylcholine receptor M4 (Homo sapiens, UniProt P08173); assay: as §1, with “CHRM4” for “CHRM2”
# T3 sequence (P08173 whole entry): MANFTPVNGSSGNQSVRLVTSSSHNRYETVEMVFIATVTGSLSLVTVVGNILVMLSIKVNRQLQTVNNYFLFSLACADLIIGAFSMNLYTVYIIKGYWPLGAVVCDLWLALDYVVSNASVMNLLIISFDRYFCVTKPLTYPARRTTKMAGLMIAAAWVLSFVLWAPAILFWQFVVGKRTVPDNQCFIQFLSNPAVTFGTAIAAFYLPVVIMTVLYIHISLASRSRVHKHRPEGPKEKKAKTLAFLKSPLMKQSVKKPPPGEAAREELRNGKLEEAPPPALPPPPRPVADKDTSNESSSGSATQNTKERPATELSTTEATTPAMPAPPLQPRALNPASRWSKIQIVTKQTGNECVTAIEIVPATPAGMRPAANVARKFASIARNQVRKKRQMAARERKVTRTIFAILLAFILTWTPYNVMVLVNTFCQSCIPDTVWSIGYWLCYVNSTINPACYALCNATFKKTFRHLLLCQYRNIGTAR
# D(2) dopamine receptor = D(2) dopamine receptor (Homo sapiens, UniProt P14416); assay: as §1, with “DRD2” for “CHRM2”
# Sequence of D(2) dopamine receptor (P14416 whole entry): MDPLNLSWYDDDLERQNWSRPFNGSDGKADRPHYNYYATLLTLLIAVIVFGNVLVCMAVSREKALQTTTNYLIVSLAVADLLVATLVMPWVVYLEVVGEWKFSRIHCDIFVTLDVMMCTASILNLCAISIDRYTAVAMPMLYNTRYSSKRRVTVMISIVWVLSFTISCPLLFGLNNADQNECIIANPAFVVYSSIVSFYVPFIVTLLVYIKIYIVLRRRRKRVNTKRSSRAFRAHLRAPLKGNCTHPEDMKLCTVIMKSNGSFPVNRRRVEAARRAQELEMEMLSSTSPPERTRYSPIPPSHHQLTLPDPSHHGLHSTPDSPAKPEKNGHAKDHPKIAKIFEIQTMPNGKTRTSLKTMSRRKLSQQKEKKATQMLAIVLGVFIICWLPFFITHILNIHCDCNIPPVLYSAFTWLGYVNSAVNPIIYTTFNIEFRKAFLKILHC
# [6] = molecular target: 5-hydroxytryptamine receptor 2B (Homo sapiens, UniProt P41595); assay: as §1, with “HTR2B” for “CHRM2”
# Sequence of 5-hydroxytryptamine receptor 2B (P41595 whole entry): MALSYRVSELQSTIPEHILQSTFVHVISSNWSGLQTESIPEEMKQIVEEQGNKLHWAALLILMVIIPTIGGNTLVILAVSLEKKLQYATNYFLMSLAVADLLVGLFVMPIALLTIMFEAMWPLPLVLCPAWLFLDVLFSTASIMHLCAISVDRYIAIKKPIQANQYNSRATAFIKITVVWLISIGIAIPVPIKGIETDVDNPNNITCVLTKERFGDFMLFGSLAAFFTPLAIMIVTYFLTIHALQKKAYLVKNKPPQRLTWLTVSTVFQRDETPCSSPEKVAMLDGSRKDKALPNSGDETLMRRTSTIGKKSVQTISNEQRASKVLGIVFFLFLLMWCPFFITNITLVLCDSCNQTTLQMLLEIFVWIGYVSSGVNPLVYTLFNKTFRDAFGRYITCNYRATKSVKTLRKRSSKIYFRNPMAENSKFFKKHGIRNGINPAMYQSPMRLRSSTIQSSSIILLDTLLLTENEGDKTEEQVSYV
# [7] = molecular target: 5-hydroxytryptamine receptor 6 (Homo sapiens, UniProt P50406); assay: as §1, with “HTR6” for “CHRM2”
# Sequence of 5-hydroxytryptamine receptor 6 (P50406 whole entry): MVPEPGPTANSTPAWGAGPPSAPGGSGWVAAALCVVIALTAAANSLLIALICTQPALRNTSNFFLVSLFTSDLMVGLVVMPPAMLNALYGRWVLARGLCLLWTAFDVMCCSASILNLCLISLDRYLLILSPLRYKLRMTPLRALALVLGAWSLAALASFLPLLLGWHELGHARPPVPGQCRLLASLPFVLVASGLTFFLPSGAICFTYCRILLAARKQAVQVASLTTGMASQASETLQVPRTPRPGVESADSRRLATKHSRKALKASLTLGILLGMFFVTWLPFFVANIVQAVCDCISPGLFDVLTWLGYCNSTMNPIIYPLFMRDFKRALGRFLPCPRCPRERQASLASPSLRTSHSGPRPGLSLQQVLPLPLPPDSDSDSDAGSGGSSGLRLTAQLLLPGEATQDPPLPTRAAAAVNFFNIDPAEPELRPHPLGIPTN
# [8] = molecular target: Sigma non-opioid intracellular receptor 1 (Homo sapiens, UniProt Q99720); assay: as §1, with “SIGMAR1” for “CHRM2”
# Sequence of Sigma non-opioid intracellular receptor 1 (Q99720 whole entry): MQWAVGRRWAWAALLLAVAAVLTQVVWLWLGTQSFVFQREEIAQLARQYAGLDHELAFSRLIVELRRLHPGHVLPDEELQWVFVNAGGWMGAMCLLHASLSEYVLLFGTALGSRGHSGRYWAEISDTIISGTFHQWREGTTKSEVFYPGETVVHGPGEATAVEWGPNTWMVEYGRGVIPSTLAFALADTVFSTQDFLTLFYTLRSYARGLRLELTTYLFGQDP
# [9] = molecular target: 5-hydroxytryptamine receptor 2A (Homo sapiens, UniProt P28223); assay: as §1, with “HTR2A” for “CHRM2”
# Sequence of 5-hydroxytryptamine receptor 2A (P28223 whole entry): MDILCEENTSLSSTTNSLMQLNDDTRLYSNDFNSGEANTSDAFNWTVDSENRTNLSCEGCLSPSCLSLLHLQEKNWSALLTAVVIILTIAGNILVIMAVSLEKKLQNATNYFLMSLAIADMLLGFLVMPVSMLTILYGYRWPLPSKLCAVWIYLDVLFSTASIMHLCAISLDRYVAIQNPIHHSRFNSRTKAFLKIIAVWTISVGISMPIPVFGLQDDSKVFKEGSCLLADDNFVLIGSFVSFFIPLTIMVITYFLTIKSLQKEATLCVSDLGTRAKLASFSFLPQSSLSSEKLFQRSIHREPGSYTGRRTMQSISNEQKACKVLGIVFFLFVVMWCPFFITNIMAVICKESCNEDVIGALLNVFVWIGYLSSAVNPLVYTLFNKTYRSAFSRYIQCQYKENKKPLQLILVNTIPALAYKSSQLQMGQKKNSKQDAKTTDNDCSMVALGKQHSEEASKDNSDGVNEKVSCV
# [10] = molecular target: Beta-2 adrenergic receptor (Homo sapiens, UniProt P07550); assay: as §1, with “ADRB2” for “CHRM2”
# Sequence of Beta-2 adrenergic receptor (P07550 whole entry): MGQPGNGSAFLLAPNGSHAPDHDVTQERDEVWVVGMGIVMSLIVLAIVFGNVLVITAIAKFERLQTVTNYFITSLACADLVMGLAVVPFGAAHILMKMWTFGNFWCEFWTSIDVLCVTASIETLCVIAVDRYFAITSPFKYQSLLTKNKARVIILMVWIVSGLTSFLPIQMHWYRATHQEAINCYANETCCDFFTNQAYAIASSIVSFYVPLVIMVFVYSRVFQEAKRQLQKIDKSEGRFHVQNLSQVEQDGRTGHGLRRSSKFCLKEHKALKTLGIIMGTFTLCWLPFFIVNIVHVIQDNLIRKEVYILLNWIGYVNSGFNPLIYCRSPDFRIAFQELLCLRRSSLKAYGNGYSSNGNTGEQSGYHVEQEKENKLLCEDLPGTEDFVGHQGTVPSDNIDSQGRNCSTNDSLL
# Translocator protein = Translocator protein (Homo sapiens, UniProt P30536); assay: as §1, with “TSPO” for “CHRM2”
# D(1A) dopamine receptor = D(1A) dopamine receptor (Homo sapiens, UniProt P21728); assay: as §1, with “DRD1” for “CHRM2”
# Sequence of D(1A) dopamine receptor (P21728 whole entry): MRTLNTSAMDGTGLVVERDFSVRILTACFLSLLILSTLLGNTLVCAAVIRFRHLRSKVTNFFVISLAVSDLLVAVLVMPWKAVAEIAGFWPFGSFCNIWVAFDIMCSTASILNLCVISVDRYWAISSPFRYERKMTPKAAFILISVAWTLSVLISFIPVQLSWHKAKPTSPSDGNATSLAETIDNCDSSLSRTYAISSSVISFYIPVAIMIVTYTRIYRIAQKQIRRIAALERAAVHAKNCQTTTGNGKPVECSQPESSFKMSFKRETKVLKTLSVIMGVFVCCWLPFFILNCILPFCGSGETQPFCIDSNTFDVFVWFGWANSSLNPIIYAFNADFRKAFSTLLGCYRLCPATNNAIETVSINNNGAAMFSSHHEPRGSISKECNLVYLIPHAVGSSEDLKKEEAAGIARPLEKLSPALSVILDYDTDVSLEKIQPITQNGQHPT
# [11] = molecular target: 5-hydroxytryptamine receptor 7 (Homo sapiens, UniProt P34969); assay: as §1, with “HTR7” for “CHRM2”
# [12] = molecular target: 5-hydroxytryptamine receptor 1B (Homo sapiens, UniProt P28222); assay: as §1, with “HTR1B” for “CHRM2”
# [13] = molecular target: T4, 5-hydroxytryptamine receptor 3A (Homo sapiens, UniProt P46098); assay: as §1, with “HTR3A” for “CHRM2”
# T4 sequence (P46098 whole entry): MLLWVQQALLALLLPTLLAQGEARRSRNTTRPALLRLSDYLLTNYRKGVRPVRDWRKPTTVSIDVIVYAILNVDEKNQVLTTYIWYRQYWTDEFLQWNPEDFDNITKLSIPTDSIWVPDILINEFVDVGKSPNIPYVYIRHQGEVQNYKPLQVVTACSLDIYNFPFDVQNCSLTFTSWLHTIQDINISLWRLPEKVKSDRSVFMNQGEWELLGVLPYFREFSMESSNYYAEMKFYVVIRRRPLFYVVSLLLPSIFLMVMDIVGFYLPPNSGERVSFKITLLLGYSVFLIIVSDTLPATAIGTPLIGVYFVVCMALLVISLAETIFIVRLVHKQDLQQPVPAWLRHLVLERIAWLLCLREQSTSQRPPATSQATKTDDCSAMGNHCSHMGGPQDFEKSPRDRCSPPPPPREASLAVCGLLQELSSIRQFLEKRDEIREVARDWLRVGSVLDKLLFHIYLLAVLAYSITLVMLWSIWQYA
# D(1B) dopamine receptor = D(1B) dopamine receptor (Homo sapiens, UniProt P21918); assay: as §1, with “DRD5” for “CHRM2”
# Sequence of D(1B) dopamine receptor (P21918 whole entry): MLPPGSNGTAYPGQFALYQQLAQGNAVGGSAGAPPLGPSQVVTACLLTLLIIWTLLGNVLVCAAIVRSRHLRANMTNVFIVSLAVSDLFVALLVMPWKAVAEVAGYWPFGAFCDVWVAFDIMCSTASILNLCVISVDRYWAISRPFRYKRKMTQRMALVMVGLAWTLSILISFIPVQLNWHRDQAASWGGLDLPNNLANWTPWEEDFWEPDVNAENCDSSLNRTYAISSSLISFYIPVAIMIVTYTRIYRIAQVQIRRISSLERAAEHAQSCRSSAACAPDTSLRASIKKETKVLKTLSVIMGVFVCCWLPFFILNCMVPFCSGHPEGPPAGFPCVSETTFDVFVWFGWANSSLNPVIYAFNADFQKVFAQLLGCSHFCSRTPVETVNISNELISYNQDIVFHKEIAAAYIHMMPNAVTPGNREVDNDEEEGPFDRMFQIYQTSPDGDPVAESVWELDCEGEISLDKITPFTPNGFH
# [14] = molecular target: T5, Alpha-2A adrenergic receptor (Homo sapiens, UniProt P08913); assay: as §1, with “ADRA2A” for “CHRM2”
# T5 sequence (P08913 whole entry): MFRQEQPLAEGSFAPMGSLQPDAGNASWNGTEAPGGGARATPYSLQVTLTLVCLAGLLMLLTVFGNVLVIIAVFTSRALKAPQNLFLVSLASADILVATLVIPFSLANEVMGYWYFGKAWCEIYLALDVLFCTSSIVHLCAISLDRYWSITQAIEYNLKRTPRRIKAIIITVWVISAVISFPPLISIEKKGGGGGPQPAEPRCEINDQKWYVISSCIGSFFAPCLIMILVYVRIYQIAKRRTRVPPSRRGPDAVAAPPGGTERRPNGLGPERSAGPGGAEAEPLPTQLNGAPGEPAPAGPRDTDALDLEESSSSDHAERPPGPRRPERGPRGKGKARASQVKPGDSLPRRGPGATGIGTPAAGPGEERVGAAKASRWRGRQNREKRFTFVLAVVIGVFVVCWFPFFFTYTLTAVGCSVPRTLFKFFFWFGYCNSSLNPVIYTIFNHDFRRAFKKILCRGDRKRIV
# [15] = molecular target: Sigma intracellular receptor 2 (Homo sapiens, UniProt Q5BJF2); assay: as §1, with “TMEM97” for “CHRM2”
# Sequence of Sigma intracellular receptor 2 (Q5BJF2 whole entry): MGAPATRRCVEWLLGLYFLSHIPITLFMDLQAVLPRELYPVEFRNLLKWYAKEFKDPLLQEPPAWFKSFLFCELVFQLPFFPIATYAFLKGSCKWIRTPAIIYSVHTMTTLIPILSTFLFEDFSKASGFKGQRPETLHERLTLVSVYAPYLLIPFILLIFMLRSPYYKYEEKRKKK
# [16] = molecular target: T6, Muscarinic acetylcholine receptor M1 (Homo sapiens, UniProt P11229); assay: as §1, with “CHRM1” for “CHRM2”
# T6 sequence (P11229 whole entry): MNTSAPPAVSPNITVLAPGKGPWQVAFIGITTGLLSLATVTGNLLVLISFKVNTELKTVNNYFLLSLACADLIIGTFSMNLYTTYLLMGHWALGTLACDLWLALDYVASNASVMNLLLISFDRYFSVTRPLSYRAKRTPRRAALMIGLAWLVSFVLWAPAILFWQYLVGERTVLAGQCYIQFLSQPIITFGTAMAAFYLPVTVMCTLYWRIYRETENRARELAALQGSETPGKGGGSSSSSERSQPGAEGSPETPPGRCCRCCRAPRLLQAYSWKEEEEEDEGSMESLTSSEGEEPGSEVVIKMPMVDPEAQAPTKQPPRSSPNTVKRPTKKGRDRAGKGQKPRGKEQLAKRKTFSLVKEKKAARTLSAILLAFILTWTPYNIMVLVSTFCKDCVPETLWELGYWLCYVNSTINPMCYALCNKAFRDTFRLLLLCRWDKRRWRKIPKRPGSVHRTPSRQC
compound,measurement,setting,value
Cc1cc(C(=O)N2Cc3cnn(C)c3Nc3ccccc32)ccc1CNC(=O)N1CCC[C@H]1C(=S)N1CCCN(C)CC1,Ki,[1],3.44 µM
same,Ki,[2],0.707 µM
same,Ki,[3],2.05 µM
same,Ki,[4],0.467 µM
same,Ki,D(3) dopamine receptor,0.912 µM
same,Ki,[5],0.249 µM
Cc1cc(NC(=O)Nc2ccc(N(C)C)cc2)c2cc(F)cc(F)c2n1,Ki,D(2) dopamine receptor,9.77 µM
same,Ki,[6],1.7 µM
same,Ki,[7],> 10 µM
same,Ki,[1],> 10 µM
same,Ki,[8],5.38 µM
CC[C@@H]1CN2C(=O)N(C)c3nc(-c4ccccc4)[nH]c3C2=N1,Ki,[9],9.75 µM
same,Ki,[8],0.668 µM
same,Ki,[10],> 10 µM
Cc1nc(C(=O)N2CCC[C@H]2Cc2nnc(-c3ccccc3)o2)c(-c2ccccc2F)s1,Ki,[6],3.05 µM
same,Ki,[1],> 10 µM
same,Ki,Translocator protein,0.789 µM
same,Ki,[3],0.704 µM
CCOC(=O)c1cc(C#N)c(N2CCC(C(=O)NS(=O)(=O)Cc3ccccc3)CC2)nc1C,Ki,[1],9.07 µM
same,Ki,D(3) dopamine receptor,2.81 µM
CC(C)(C)NC[C@H](O)COc1nsnc1N1CCOCC1 [TIMOLOL],Ki,D(1A) dopamine receptor,5.28 µM
same,Ki,[8],0.391 µM
O=C(O)C1CN(Cc2ccc(-c3nc4cc(Cc5ccccc5F)ccc4s3)c(F)c2)C1,Ki,D(3) dopamine receptor,1.42 µM
same,Ki,[10],> 10 µM
Cc1cccc(NC(=O)N[C@@H]2N=C(c3ccccc3)c3ccccc3N(C)C2=O)c1 [L-365260],Ki,[6],6.21 µM
same,Ki,[9],2.14 µM
same,Ki,D(1A) dopamine receptor,3.02 µM
CC(C)NC(=O)c1ccc(C#Cc2ccncc2)cn1,Ki,[1],6.75 µM
same,Ki,[8],1.1 µM
CN1CCC(=C2c3ccccc3CC(=O)c3sccc32)CC1 [KETOTIFEN FUMARATE],Ki,D(2) dopamine receptor,1.73 µM
same,Ki,[11],0.407 µM
same,Ki,[7],0.825 µM
same,Ki,[12],1.75 µM
same,Ki,[1],0.244 µM
same,Ki,D(1A) dopamine receptor,0.299 µM
same,Ki,[13],0.339 µM
same,Ki,D(1B) dopamine receptor,2.66 µM
same,Ki,[14],1.08 µM
same,Ki,[4],0.0985 µM
same,Ki,[15],0.366 µM
same,Ki,D(3) dopamine receptor,0.717 µM
same,Ki,[5],0.917 µM
CCN(CC)CCCCC1CCN(CC(=O)N2c3ccccc3C(=O)Nc3cccnc32)CC1,Ki,[16],0.258 µM
same,Ki,D(1A) dopamine receptor,0.74 µM
same,Ki,[2],0.152 µM
same,Ki,D(1B) dopamine receptor,1.85 µM
same,Ki,[4],0.944 µM
same,Ki,[15],1.31 µM
same,Ki,[5],0.0136 µM
